Reference: publication PMC4443670, “The C-terminal region of the motor protein MCAK controls its structure and activity through a conformational switch” (eLife, 2015)
“Also recorded” adds a separate entry of the source. Ends that are not written are not given here.

Tests used:
[1] = test system: taxol-stabilized microtubules; test: Microtubule depolymerisation assay; format: biochemical
Experimental: Microtubule depolymerization assays were performed essentially as described previously ([Hertzer et al., 2006]). MCAK was diluted to 100 nM in S-buffer containing 1 mM DTT and 2 mM Mg-ATP. For depolymerization assays of the motor domain in presence of the CT domain after GST cleavage and removal, 50 nM of motor domain and 100 nM of the CT domain were used. The microtubule depolymerization assay was initiated by the addition of 2 μM taxol-stabilized microtubules to a reaction buffer containing MCAK. Reactions were incubated at room temperature with increasing times and followed by centrifugation to separate microtubules from free tubulin. The data are represented as mean ± SD from three independent experiments.

[2] = test system: MCAK motor domain (Cys287); test: Covalent (disulphide) attachment of the CT domain to the motor domain; format: binding, human
Experimental: The GST-CTE712C and CTE712C domains were cross-linked to the motor domain by incubating them with the motor domain in a buffer containing 100 mM HEPES, pH 7.4, 150 mM NaCl but lacking DTT for 1 hr at 4°C. As a negative control the motor domain and the CTE712C domain were incubated in the identical buffer, supplemented with 5 mM DTT.

[3] = test system: taxol-stabilized microtubules; test: Microtubule cosedimentation assay, untreated microtubules; format: binding; conditions: for detection of CT domain in microtubule-bound pellet / supernatant: western blot, 50 nM motor domain, with and without DTT
Experimental: Full-length MCAK complex was diluted in S buffer (50 mM NaCl, 20 mM Hepes pH 7.0) to 50 nM, in absence of nucleotide to prevent MCAK-dependent microtubule depolymerisation. To assemble an MCAK motor-CT domain complex, 50 nM of the motor domain and 100 nM of the CT domain were used. Microtubule binding assays were performed as described ([Cheeseman et al., 2006]) using equal volumes of taxol-stabilized microtubules in BRB80 and MCAK in S buffer. MCAK was quantified using anti-MCAK antibody against the C terminus of MCAK (709[…]720), generated by GL Biochem (Shangai) Ltd (China) or anti-His antibody to probe for the motor domain alone (GE Healthcare Lifesciences, UK). The data from at least three independent experiments were fitted to a modified Hill equation to determine the apparent Kd.

MCAK motor domain [4] = biological target: T1, MCAK motor domain (Homo sapiens, UniProt Q99661); test: Analytical size-exclusion chromatography (motor-CT complex formation); format: binding; conditions: Superdex 75 or Superose 6 10/300 GL; Coomassie-stained gel of fractions
T1 construct: His-MCAK (183–583, M) and His-MCAK (1–583, NM) were subcloned in pET3aTr vector; made in house; host or cells: E. coli BL21(DE3) Codon plus
Excerpt: Full-length MCAK is a dimer in solution ([Maney et al., 2001]). Therefore, we sought to test whether the CT domain interacts with one or two motor domains. To define the stoichiometry of this interaction, we subjected the complex to analytical size-exclusion chromatography. The motor domain alone behaves as a monomer and eluted with an apparent size of ∼45 kDa. […] Using SDS-PAGE analysis, we confirmed that the shift to a larger complex was due to the interaction of the motor domain with the CT domain (Figure 1C, bottom). […] The predicted masses for complexes of one and two CT domains bound to two motor domains are ∼94.2 and 97.7 kDa, respectively. […] Since the CT domain is unlikely to dimerize alone (Figure 1B), we conclude that the MCAK CT domain induces the dimerization of the motor domains cooperatively.
Protein expression was induced by addition of 0.5 mM IPTG to BL21(DE3) Codon plus cells transformed with respective constructs at OD600 of 0.7–0.8 for 16 hr at 18°C. Cells were lysed by sonication in lysis buffer (50 mM Hepes, pH 7.4, 200 mM NaCl, 1 mM MgCl2, 1 mM PMSF, 1 mg/ml DNaseI, 2 mg/ml lysozyme, 10 mM Imidazole) and clarified at 20,000 rpm for 1 hr at 4°C. His-tagged and GST-tagged proteins were subsequently purified using Ni-NTA–agarose beads and glutathione-sepharose beads, respectively (GE Healthcare Life Sciences, UK)) according to the manufacturer's guidelines. MCAK constructs containing the motor domain were eluted with elution buffer (50 mM Hepes, pH 7.4, 200 mM NaCl, 1 mM MgCl2, 1 mM ATP, and 300 mM imidazole). Cleavage of the GST tag was performed using the GST-3C protease overnight at 4°C. […] Protein concentrations were determined with a combination of Bradford protein assays and densitometry of Coomassie-stained gels relative to a BSA standard. […]

MCAK motor domain [5] = biological target: T1, MCAK motor domain; test: X-ray crystal structure of motor domain with CT peptide (PDB 4UBF)
Experimental: 1 mM MCAK motor domain (PDB:2HEH, Addgene, Cambridge MA, USA) was incubated with the CT peptide 709[…]720 (China peptides Co, Ltd, China) in a ratio of 1:2 for 1 hr at 4°C before setting up crystallization trials. Elongated rectangular crystals appeared by vapor diffusion after two days in sitting drops using 24% wt/vol PEG 1500 and 20% vol/vol Glycerol as a precipitant. Crystals were grown in MRC 2 Well Crystallization Plate (Hampton Research, Aliso Viejo, CA, USA) at 19°C. Crystals were cryoprotected in a solution containing 28% wt/vol PEG 1500 and 30% vol/vol Glycerol and flash-frozen in dry liquid nitrogen.
Diffraction data were recorded at Diamond Light Source on beamline ID24 at 100 K. Data were processed using XDS package ([Kabsch, 2010]) and SCALA operated through the CCP4 suite GUI ([Collaborative Computational Project, Number 4, 1994]). The structure of the MCAK motor-tail complex was solved by molecular replacement using the program MOLREP. The MCAK motor domain structure (PDB code: 2HEH) was used as a search model. Structure refinement was performed using Refmac5 and Phenix ([Adams et al., 2010]). Figures were prepared using PyMOL ([Delano, 2002]).

GST-CT domain = test: Resin-based binding assay, CT domain self-interaction (CT domain to GST-CT); parameters: species or system human; conditions: GST-CT on glutathione agarose; GST-cleaved CT domain
Excerpt: Kinesin-1 is regulated through an auto-inhibitory mechanism whereby one C-terminal tail binds at the interface of the two motors, such that it creates a second point of attachment in addition to the coiled coil region. This limits the head movement of one kinesin with respect to the other ([Stock et al., 1999]; [Hackney and Stock, 2000]; [Kaan et al., 2011]). We sought to test whether the C-terminal tail domain of MCAK, which has been proposed to regulate MCAK activity ([Moore and Wordeman, 2004]), was sufficient to interact with the motor domain. To do this, we expressed the N-terminal and motor region (residues 1–583, termed NM) or the motor region of MCAK along with the neck linker region (residues 181–583, termed M) as His-tagged proteins, and the C-terminal MCAK tail (residues 700–725, termed CT domain) as a GST fusion protein ([Moore and Wordeman, 2004]; [Hertzer et al., 2006]) (Figure 1A). […] We cannot however exclude a very tight interaction between two CT domains. […]
Protein expression was induced by addition of 0.5 mM IPTG to BL21(DE3) Codon plus cells transformed with respective constructs at OD600 of 0.7–0.8 for 16 hr at 18°C. […] Protein concentrations were determined with a combination of Bradford protein assays and densitometry of Coomassie-stained gels relative to a BSA standard. […]

T1 sequence (Q99661 183-583): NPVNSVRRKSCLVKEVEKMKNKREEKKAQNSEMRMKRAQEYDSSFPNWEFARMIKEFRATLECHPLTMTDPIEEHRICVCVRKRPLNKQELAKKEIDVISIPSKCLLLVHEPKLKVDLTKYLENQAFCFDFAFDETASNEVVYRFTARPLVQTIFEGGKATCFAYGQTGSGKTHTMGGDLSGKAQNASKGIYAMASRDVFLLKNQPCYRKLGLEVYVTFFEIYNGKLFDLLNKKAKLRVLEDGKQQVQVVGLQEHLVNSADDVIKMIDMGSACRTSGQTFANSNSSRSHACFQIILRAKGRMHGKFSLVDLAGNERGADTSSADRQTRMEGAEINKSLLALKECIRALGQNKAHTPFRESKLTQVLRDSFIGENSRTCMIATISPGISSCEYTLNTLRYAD

microtubule depolymerase activity of motor with CTE712C domain, absence of DTT ([1]; 50 nM motor domain, 100 nM CTE712C domain, 2 μM taxol-stabilized microtubules, no DTT, apparent activity)	binding to MCAK motor, presence of DTT ([2]; 5 mM DTT)	RMSD of overall structure of MCAK on CT domain binding (MCAK motor domain [5]; 3 Å crystal structure) [Å]	Substance	microtubule depolymerase activity of motor with CTE712C domain, presence of DTT ([1]; 50 nM motor domain, 100 nM CTE712C domain, 2 μM taxol-stabilized microtubules, with DTT)	specific depolymerase activity of covalent MCAK motor-CTE712C complex ([1]; calculated by subtracting activity of motor alone (~50% of population))	non-covalently bound MCAK fraction ([2]; motor-CTE712C domain complex, absence of DTT, Figure 6—figure supplement 1F)	formation of covalent complex with motor ([2]; oxidizing conditions (without DTT), 100 mM HEPES pH 7.4, 150 mM NaCl, 1 hr at 4°C)	reduction of fraction of MCAK motor bound to microtubules ([3]; 50 nM motor domain + CTE712C domain, oxidizing conditions (no DTT), absence of nucleotide) [%]	detection of CT domain in microtubule-bound pellet / supernatant [3]	binding to / co-migration with motor domain by gel filtration (MCAK motor domain [4])	interaction of CT domain with itself (GST-CT domain)	effect of free CT domain on MCAKS715E binding to microtubules ([3]; 100 nM full-length MCAKS715E, 2 μM taxol-stabilized microtubules, increasing free CT or CTS715E, repeated three times)	binding mode in crystal structure (MCAK motor domain [5]; 3 Å, peptide 709QLEEQASRQISS720)
displayed reduced depolymerase activity	did not bind the MCAK motor	–	CTE712C: CT domain with Glu712 mutated to cysteine, forms disulphide bridge with motor Cys287 (VIKALRLAMQLECQASRQISSKKRPQ; also: Cys712 forms disulfide with motor Cys287; UniProt Q99661 700-725, looked up, fragment E712C)	the depolymerase activity was similar to that of the wild type MCAK motor alone	strongly inhibits the depolymerase activity of MCAK	45–50%	formed a covalent complex	~50	did not detect	–	–	–	–
–	–	0.863	GPLGSIKALRLAMQLEEQASRQISSKKRPQ-OH [CT domain]	–	–	–	–	–	did not detect	bound the motor domain independently of the GST; also recorded: the elution peak shifted to an earlier fraction, suggesting dimerization of the MCAK motor	unable to interact with itself through dimerization	decreased the affinity of MCAKS715E for microtubules	–
–	–	–	709QLEEQASRQISS720 [chemically synthesized peptide corresponding to the CT domain]	–	–	–	–	–	–	–	–	–	a single CT domain binds to both motor domains, close to their neck linker regions
